From patent publication US9593123B2, “Triazolo[4,5-D]pyrimidine derivatives” (Hoffmann-La Roche Inc., priority 2013, dated 2017)

Assays:
human CB1 receptor = human CB1 receptor (Homo sapiens (Human), UniProt P21554); test: cAMP assay, CHO cells expressing human CB1 receptors; format: cell-based; settings: functional cAMP assay, read-out: CB1 hcAMP EC50
Description: (§1) CHO cells expressing human CB1 or CB2 receptors are seeded 17-24 hours prior to the experiment 50.000 cells per well in a black 96 well plate with flat clear bottom (Corning Costar #3904) in DMEM (Invitrogen No. 31331), 1×HT supplement, with 10% fetal calf serum and incubated at 5% CO2 and 37° C. in a humidified incubator. The growth medium was exchanged with Krebs Ringer Bicarbonate buffer with 1 mM IBMX and incubated at 30° C. for 30 min. Compounds were added to a final assay volume of 100 μl and incubated for 30 min at 30° C. Using the cAMP-Nano-TRF detection kit the assay (Roche Diagnostics) was stopped by the addition of 50 μl lysis reagent (Tris, NaCl, 1.5% Triton X100, 2.5% NP40, 10% NaN3) and 50 μl detection solutions (20 μM mAb Alexa700-cAMP 1:1, and 48 μM Ruthenium-2-AHA-cAMP) and shaken for 2 h at room temperature. The time-resolved energy transfer is measured by a TRF reader (Evotec Technologies GmbH), equipped with a ND:YAG laser as excitation source. The plate is measured twice with the excitation at 355 nm and at the emission with a delay of 100 ns and a gate of 100 ns, total exposure time 10 s at 730 (bandwidth 30 nm) or 645 nm (bandwidth 75 nm), respectively. The FRET signal is calculated as follows: FRET=T730-Alexa730-P(T645-B645) with P=Ru730-B730/Ru645-B645, where T730 is the test well measured at 730 nM, T645 is the test well measured at 645 nm, B730 and B645 are the buffer controls at 730 nm and 645 nm, respectively. cAMP content is determined from the function of a standard curve spanning from 10 μM to 0.13 nM cAMP.
(§2) EC50 values were determined using Activity Base analysis (ID Business Solution, Limited). The EC50 values for a wide range of cannabinoid agonists generated from this assay were in agreement with the values published in the scientific literature.

human CB2 receptor = human CB2 receptor (Homo sapiens (Human), UniProt P34972); test: cAMP assay, CHO cells expressing human CB2 receptors; format: cell-based; settings: functional cAMP assay, read-out: CB2 hcAMP EC50
Description: as §1, §2

Chain of human CB2 receptor (P34972 whole entry): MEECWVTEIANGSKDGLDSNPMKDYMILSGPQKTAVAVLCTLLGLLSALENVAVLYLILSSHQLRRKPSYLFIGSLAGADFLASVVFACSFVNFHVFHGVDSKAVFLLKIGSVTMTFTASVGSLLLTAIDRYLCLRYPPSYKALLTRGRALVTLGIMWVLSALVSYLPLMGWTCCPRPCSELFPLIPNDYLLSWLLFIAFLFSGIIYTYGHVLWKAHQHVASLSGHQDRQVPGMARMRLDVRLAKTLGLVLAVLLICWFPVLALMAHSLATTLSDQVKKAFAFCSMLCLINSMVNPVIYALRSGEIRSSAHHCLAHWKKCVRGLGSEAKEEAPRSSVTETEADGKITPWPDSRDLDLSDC
Chain of human CB1 receptor (P21554 whole entry): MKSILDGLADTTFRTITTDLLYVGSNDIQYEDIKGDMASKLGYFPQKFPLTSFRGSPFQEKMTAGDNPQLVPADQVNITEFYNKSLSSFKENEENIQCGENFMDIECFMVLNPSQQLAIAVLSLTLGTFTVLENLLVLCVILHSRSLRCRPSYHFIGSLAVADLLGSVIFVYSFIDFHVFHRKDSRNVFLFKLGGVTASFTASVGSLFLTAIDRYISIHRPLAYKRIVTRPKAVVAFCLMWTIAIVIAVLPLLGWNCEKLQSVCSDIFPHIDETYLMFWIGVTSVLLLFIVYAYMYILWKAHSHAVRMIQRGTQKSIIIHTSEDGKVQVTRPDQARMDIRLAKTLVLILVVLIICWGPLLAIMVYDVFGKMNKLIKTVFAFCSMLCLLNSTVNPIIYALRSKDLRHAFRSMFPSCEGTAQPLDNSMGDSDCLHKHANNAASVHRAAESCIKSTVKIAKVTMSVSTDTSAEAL

COCC(C)Oc1nc(N2CCC(F)(F)C2)c2nnn(Cc3ccccc3Cl)c2n1 (stereo not shown) [Example 57, 3-[(2-Chlorophenyl)methyl]-7-(3,3-difluoropyrrolidin-1-yl)-5-(1-methoxypropan-2-yloxy)triazolo[4,5-d]pyrimidine]
EC50 (human CB1 receptor): > 10000 nM
EC50 (human CB2 receptor): 8.8 nM

CC(C)(O)COc1nc(N2CCC(F)(F)C2)c2nnn(Cc3ccccc3Cl)c2n1 [Example 58, 1-[3-[(2-Chlorophenyl)methyl]-7-(3,3-difluoropyrrolidin-1-yl)triazolo[4,5-d]pyrimidin-5-yl]oxy-2-methylpropan-2-ol]
EC50 (human CB1 receptor): > 10000 nM
EC50 (human CB2 receptor): 15.7 nM

CCCOc1nc(N2CCC(F)(F)C2)c2nnn(Cc3ccccc3Cl)c2n1 [Example 59, 3-[(2-Chlorophenyl)methyl]-7-(3,3-difluoropyrrolidin-1-yl)-5-propoxytriazolo[4,5-d]pyrimidine]
EC50 (human CB1 receptor): > 10000 nM
EC50 (human CB2 receptor): 0.9 nM

O[C@H]1CCN(c2nc(OCC(F)(F)F)nc3c2nnn3Cc2ccccc2Cl)C1 [Example 60, (3S)-1-[3-[(2-Chlorophenyl)methyl]-5-(2,2,2-trifluoroethoxy)triazolo[4,5-d]pyrimidin-7-yl]pyrrolidin-3-ol]
EC50 (human CB1 receptor): > 10000 nM
EC50 (human CB2 receptor): 0.8 nM

O[C@H]1CCN(c2nc(OCC(F)(F)F)nc3c2nnn3Cc2ccccc2C(F)(F)F)C1 [Example 61, (3S)-1-[5-(2,2,2-Trifluoroethoxy)-3-[[2-(trifluoromethyl)phenyl]methyl]triazolo[4,5-d]pyrimidin-7-yl]pyrrolidin-3-ol]
EC50 (human CB1 receptor): > 10000 nM
EC50 (human CB2 receptor): 7.5 nM

CC(C)Oc1nc(N2CC[C@H](O)C2)c2nnn(Cc3ccccc3Cl)c2n1 [Example 62, (3S)-1-[3-[(2-Chlorophenyl)methyl]-5-propan-2-yloxytriazolo[4,5-d]pyrimidin-7-yl]pyrrolidin-3-ol]
EC50 (human CB1 receptor): > 10000 nM
EC50 (human CB2 receptor): 14.8 nM

CC(C)Oc1nc(N2CC[C@H](O)C2)c2nnn(Cc3ccccc3S(C)(=O)=O)c2n1 [Example 63, (3S)-1-[3-[(2-Methylsulfonylphenyl)methyl]-5-propan-2-yloxytriazolo[4,5-d]pyrimidin-7-yl]pyrrolidin-3-ol]
EC50 (human CB1 receptor): > 10000 nM
EC50 (human CB2 receptor): 190 nM

CC(C)Oc1nc(N2CC[C@H](O)C2)c2nnn(Cc3nnnn3C)c2n1 [Example 64, (3S)-1-[3-[(1-Methyltetrazol-5-yl)methyl]-5-propan-2-yloxytriazolo[4,5-d]pyrimidin-7-yl]pyrrolidin-3-ol]
EC50 (human CB1 receptor): > 10000 nM
EC50 (human CB2 receptor): 174 nM

Cn1nnnc1Cn1nnc2c(N3CCC(F)(F)C3)nc(OCC(C)(C)C)nc21 [Example 65, 7-(3,3-Difluoropyrrolidin-1-yl)-5-(2,2-dimethylpropoxy)-3-[(1-methyltetrazol-5-yl)methyl]triazolo[4,5-d]pyrimidine]
EC50 (human CB1 receptor): > 10000 nM
EC50 (human CB2 receptor): 11.9 nM

CC(C)(C)COc1nc(N2CCC(F)(F)C2)c2nnn(Cc3ccccc3S(C)(=O)=O)c2n1 [Example 66, 7-(3,3-Difluoropyrrolidin-1-yl)-5-(2,2-dimethylpropoxy)-3-[(2-methylsulfonylphenyl)methyl]triazolo[4,5-d]pyrimidine]
EC50 (human CB1 receptor): > 10000 nM
EC50 (human CB2 receptor): 3.9 nM

Cc1nonc1Cn1nnc2c(N3CCC(F)(F)C3)nc(OCC(C)(C)C)nc21 [Example 67, 3-[[7-(3,3-Difluoropyrrolidin-1-yl)-5-(2,2-dimethylpropoxy)triazolo[4,5-d]pyrimidin-3-yl]methyl]-4-methyl-1,2,5-oxadiazole]
EC50 (human CB1 receptor): > 10000 nM
EC50 (human CB2 receptor): 1.7 nM

C[C@H](Oc1nc(N2CCC(F)(F)C2)c2nnn(Cc3ccccc3C(F)(F)F)c2n1)C(F)(F)F [Example 68, 7-(3,3-Difluoropyrrolidin-1-yl)-3-[[2-(trifluoromethyl)phenyl]methyl]-5-[(2S)-1,1,1-trifluoropropan-2-yl]oxytriazolo[4,5-d]pyrimidine]
EC50 (human CB1 receptor): > 10000 nM
EC50 (human CB2 receptor): 0.4 nM

C[C@H](Oc1nc(N2CCC(F)(F)C2)c2nnn(Cc3ccccc3S(C)(=O)=O)c2n1)C(F)(F)F [Example 69, 7-(3,3-Difluoropyrrolidin-1-yl)-3-[(2-methylsulfonylphenyl)methyl]-5-[(2S)-1,1,1-trifluoropropan-2-yl]oxytriazolo[4,5-d]pyrimidine]
EC50 (human CB1 receptor): > 10000 nM
EC50 (human CB2 receptor): 3.2 nM

C[C@H](Oc1nc(N2CCC(F)(F)C2)c2nnn(Cc3ncccc3Cl)c2n1)C(F)(F)F [Example 70, 3-[(3-Chloropyridin-2-yl)methyl]-7-(3,3-difluoropyrrolidin-1-yl)-5-[(2S)-1,1,1-trifluoropropan-2-yl]oxytriazolo[4,5-d]pyrimidine]
EC50 (human CB1 receptor): > 10000 nM
EC50 (human CB2 receptor): 5.1 nM

Cc1nnc(Cn2nnc3c(N4CCC(F)(F)C4)nc(O[C@@H](C)C(F)(F)F)nc32)o1 [Example 71, 2-[[7-(3,3-Difluoropyrrolidin-1-yl)-5-[(2S)-1,1,1-trifluoropropan-2-yl]oxytriazolo[4,5-d]pyrimidin-3-yl]methyl]-5-methyl-1,3,4-oxadiazole]
EC50 (human CB1 receptor): > 10000 nM
EC50 (human CB2 receptor): 214 nM

Cc1noc(Cn2nnc3c(N4CCC(F)(F)C4)nc(O[C@@H](C)C(F)(F)F)nc32)n1 [Example 72, 5-[[7-(3,3-Difluoropyrrolidin-1-yl)-5-[(2S)-1,1,1-trifluoropropan-2-yl]oxytriazolo[4,5-d]pyrimidin-3-yl]methyl]-3-methyl-1,2,4-oxadiazole]
EC50 (human CB1 receptor): > 10000 nM
EC50 (human CB2 receptor): 67.4 nM

C[C@H](Oc1nc(N2CCC(F)(F)C2)c2nnn(Cc3nnnn3C)c2n1)C(F)(F)F [Example 73, 7-(3,3-Difluoropyrrolidin-1-yl)-3-[(1-methyltetrazol-5-yl)methyl]-5-[(2S)-1,1,1-trifluoropropan-2-yl]oxytriazolo[4,5-d]pyrimidine]
EC50 (human CB1 receptor): > 10000 nM
EC50 (human CB2 receptor): 42.3 nM

Cc1nonc1Cn1nnc2c(N3CCC(F)(F)C3)nc(O[C@@H](C)C(F)(F)F)nc21 [Example 74, 3-[[7-(3,3-Difluoropyrrolidin-1-yl)-5-[(2S)-1,1,1-trifluoropropan-2-yl]oxytriazolo[4,5-d]pyrimidin-3-yl]methyl]-4-methyl-1,2,5-oxadiazole]
EC50 (human CB1 receptor): > 10000 nM
EC50 (human CB2 receptor): 1.8 nM

C[C@H](Oc1nc(N2CCC(F)(F)C2)c2nnn(CCC(F)(F)F)c2n1)C(F)(F)F [Example 75, 7-(3,3-Difluoropyrrolidin-1-yl)-5-[(2S)-1,1,1-trifluoropropan-2-yl]oxy-3-(3,3,3-trifluoropropyl)triazolo[4,5-d]pyrimidine]
EC50 (human CB1 receptor): > 10000 nM
EC50 (human CB2 receptor): 4.3 nM

C[C@H](Oc1nc(N2CCC(F)(F)C2)c2nnn(Cc3nnnn3C3CC3)c2n1)C(F)(F)F [Example 76, 3-[(1-Cyclopropyltetrazol-5-yl)methyl]-7-(3,3-difluoropyrrolidin-1-yl)-5-[(2S)-1,1,1-trifluoropropan-2-yl]oxytriazolo[4,5-d]pyrimidine]
EC50 (human CB1 receptor): > 10000 nM
EC50 (human CB2 receptor): 17.7 nM

CC(=O)N[C@H]1CCN(c2nc(OCC(C)(C)C)nc3c2nnn3Cc2ccccc2Cl)C1 [Example 77, N-[(3S)-1-[3-[(2-Chlorophenyl)methyl]-5-(2,2-dimethylpropoxy)triazolo[4,5-d]pyrimidin-7-yl]pyrrolidin-3-yl]acetamide]
EC50 (human CB1 receptor): > 10000 nM
EC50 (human CB2 receptor): 58.2 nM

CC(=O)N[C@H]1CCN(c2nc(OCC(C)(C)C)nc3c2nnn3Cc2ncccc2Cl)C1 [Example 78, N-[(3S)-1-[3-[(3-Chloropyridin-2-yl)methyl]-5-(2,2-dimethylpropoxy)triazolo[4,5-d]pyrimidin-7-yl]pyrrolidin-3-yl]acetamide]
EC50 (human CB1 receptor): > 10000 nM
EC50 (human CB2 receptor): 168 nM

CC(=O)N[C@H]1CCN(c2nc(OCC(C)(C)C)nc3c2nnn3Cc2nonc2C)C1 [Example 79, N-[(3S)-1-[5-(2,2-Dimethylpropoxy)-3-[(4-methyl-1,2,5-oxadiazol-3-yl)methyl]triazolo [4,5-d]pyrimidin-7-yl]pyrrolidin-3-yl]acetamide]
EC50 (human CB1 receptor): > 10000 nM
EC50 (human CB2 receptor): 72.7 nM

CC(=O)N[C@H]1CCN(c2nc(O[C@@H](C)C(F)(F)F)nc3c2nnn3Cc2ccccc2Cl)C1 [Example 80, N-[(3S)-1-[3-[(2-Chlorophenyl)methyl]-5-[(2S)-1,1,1-trifluoropropan-2-yl]oxytriazolo [4,5-d]pyrimidin-7-yl]pyrrolidin-3-yl]acetamide]
EC50 (human CB1 receptor): > 10000 nM
EC50 (human CB2 receptor): 159 nM

CCSc1nc(N2CCC(F)(F)C2)c2nnn(Cc3ccccc3Cl)c2n1 [Example 82, 3-[(2-Chlorophenyl)methyl]-7-(3,3-difluoropyrrolidin-1-yl)-5-ethylsulfanyltriazolo [4,5-d]pyrimidine]
EC50 (human CB1 receptor): 183 nM
EC50 (human CB2 receptor): 0.7 nM

FC(F)(F)CSc1nc(N2CCC(F)(F)C2)c2nnn(Cc3ccccc3Cl)c2n1 [Example 83, 3-[(2-Chlorophenyl)methyl]-7-(3,3-difluoropyrrolidin-1-yl)-5-(2,2,2-trifluoroethylsulfanyl)triazolo[4,5-d]pyrimidine]
EC50 (human CB1 receptor): > 10000 nM
EC50 (human CB2 receptor): 1.9 nM
